Laboratory results as given in publication PMC10505172, “Discovery and pharmacophoric characterization of chemokine network inhibitors using phage-display, saturation mutagenesis and computational modelling” (Nature Communications, 2023).
Like-named read-outs stand apart in the source and are kept apart here. Ends that are not written are not given here.

Legend:
CCL8 [1] = target: T1, CCL8 (Homo sapiens, UniProt P80075); assay: CCL8-induced THP1 cell migration (chemotaxis); format: cell-based; conditions: for effect on chemokine-induced cell migration compared with scrambled control HD2SCR: peptides 10 μM, chemokine at EC80, THP1 cells, n = 3 biological replicates, Dunnett's test
T1 construct: purchased Peprotech 300-15
T1 sequence (P80075 24-99): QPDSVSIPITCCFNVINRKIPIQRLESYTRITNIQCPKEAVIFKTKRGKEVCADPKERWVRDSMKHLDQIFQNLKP
Experimental: (§1) For THP1 migration assays, 300000 cells/well were added to the top chamber of a 5-µm 96-well Transwell insert (3387, Corning) in 50 µL of cell migration media (RPMI-1640 (R0883, Sigma), 0.5% FBS (F9665, Sigma), 4 mM L-Glutamine (G7513, Sigma), 0.05% DMSO (D4540, Sigma)). The bottom chamber contained 150 µL of migration media with chemokine and peptide added. Cells were migrated at 37 °C in 5% CO2 for 4 h.
Following the migration assay the migration plate was shaken at 850 RPM for 10 min, and media from bottom plate transferred to a round-bottomed 96 well plate (353910, Falcon). Cell counts were determined using an Atune NxT Flow Cytometer Plate Reader with Cytkick autosampler (ThermoFisher), based on cell size parameters FSC-H/SSC-H, and a previously defined gate setting for each cell type (Supplementary Fig. 11). All experiments were performed as three technical and three biological replicates. Statistical significances between control and experimental groups was evaluated using Dunnett’s test[73]. IC50 experiments were performed at the EC80 dose of chemokine. EC80 was calculated by fitting a chemokine dose-response curve with a 3-parameter log-logistic model (fixing the top to 100%) using the function “drm” in R-package drc[74]. IC50 was calculated by fitting an inhibitor response curve with a 4-parameter log-logistic model using the function “drm” in R-package drc[74]. All IC50 values reported had p-value < 0.05.

CCL5 [2] = conditions: cited from earlier work
Description: Peptides and peptidomimetics that mimic the activity of parental proteins have been successfully developed from several naturally occurring proteins into viable clinical therapeutics. Exemplars include the peptidomimetics captopril, eptifibatide and tirofiban, which are based on peptides derived from the snake venom toxins bradykinin-potentiating-peptide, barbourin and echistatin respectively. […] Inspired by these exemplars, by usi ...

CCL8 [3] = target: T1, CCL8; assay: Biolayer interferometry, His-SUMO peptide fusion binding to chemokine
Description: We next evaluated the ability of the exemplar peptide HD2 to bind a panel of chemokines (Supplementary Table 3) using biolayer interferometry (BLI). We generated HD2 and a scrambled control (HD2SCR) as HIS:SUMO fusion proteins in E.coli. This approach results in soluble proteins that can be immobilised on to BLI sensors through the N-terminal HIS tag. […] The binding of HD2 to these chemokines was characterised at different chemokine doses to evaluate binding affinity (KD). […] As chemokines are known to oligomerize in solution and also upon glycosaminoglycan binding, the most parsimonious explanation for this binding profile is chemokine oligomerization at the BLI sensor. […] The most likely explanation is that multivalent phage peptide-display allows identification of lower affinity interactions in comparison to BLI[40].
The binding of His-SUMO tagged peptide fusions to various chemokines (Supplementary Table 3) was investigated by biolayer interferometry (BLI) using Ni-NTA biosensors (18-5101, ForteBio). All BLI data were obtained at 25 °C using a ForteBio-Sartorius Octet RED 384 instrument and Octet 384-well tilted bottom microplate (18-5080, Sartorius). […] Kinetic data was analysed using buffer subtracted wavelength shift and a 1:1 binding model.

CCL11 = assay: Biolayer interferometry cross-binding screen; design: species or system human; conditions: 1 μM chemokine, fusion 1 mg/mL immobilised; specific if Rmax exceeded 3 times Rmax of SUMO:HD2SCR; two independent experiments
Experimental: (§2) The binding of His-SUMO tagged peptide fusions to various chemokines (Supplementary Table 3) was investigated by biolayer interferometry (BLI) using Ni-NTA biosensors (18-5101, ForteBio). All BLI data were obtained at 25 °C using a ForteBio-Sartorius Octet RED 384 instrument and Octet 384-well tilted bottom microplate (18-5080, Sartorius). The biosensors were preincubated overnight at room temperature in BLI buffer (PBS, 500 mM NaCl, 0.01% BSA (A7638, Sigma) + 0.002% Tween (P2287, Sigma)). His-SUMO tagged peptide fusions at 1 mg/mL (for cross-binding screen assay) and at 0.25 mg/mL (for kinetic assays) were immobilised on the Ni-NTA biosensors for 500 s using the BLI buffer. The HIS:SUMO fusion-loaded biosensors were then washed in the BLI buffer to allow signal stabilisation. To study the association with the analyte (chemokines), the biosensors were then dipped in chemokine solutions of various concentrations (1 μM for cross-binding screen assays, a range of 25–750 nM for kinetic assays) made in the BLI buffer, for either 300 s for cross-binding screen assays, or 600 s for kinetic assays. This was followed by the dissociation step, where the biosensors were incubated in BLI buffer for 300 s for screening assays and 600 s for kinetic assays. For chemokine cross-binding screens, wavelength shift was normalised by subtracting the signal from buffer control, and normalising the highest Rmax (i.e., with CCL8 and HD2) obtained in the experiment to 1. Kinetic data was analysed using buffer subtracted wavelength shift and a 1:1 binding model. […]
(§3) independent experiments. Plots display normalised wavelength shift (y axis; nm) versus time (x-axis; seconds). Vertical dotted line indicates the onset of dissociation. Cross-binding experiments (at 1 uM chemokine concentration) were performed with a panel of chemokines (see Supplementary information
(§4) Table 3). […] Chemokine names are indicated. […]
(§5) specific binding in two independent experiments are shown. […]

CXCL13 = assay: Biolayer interferometry cross-binding screen; design: species or system human; conditions: 1 μM chemokine, fusion 1 mg/mL immobilised; specific if Rmax exceeded 3 times Rmax of SUMO:HD2SCR; two independent experiments
Experimental: as §2, §3, §4, §5

CCL1 = assay: Biolayer interferometry cross-binding screen; design: species or system human; conditions: 1 μM chemokine, fusion 1 mg/mL immobilised; specific if Rmax exceeded 3 times Rmax of SUMO:HD2SCR; two independent experiments
Experimental: as §2, §3, §4, §5

CXCL10 [4] = target: T2, CXCL10 (Homo sapiens, UniProt P02778); assay: Biolayer interferometry cross-binding screen; conditions: 1 μM chemokine, fusion 1 mg/mL immobilised; specific if Rmax exceeded 3 times Rmax of SUMO:HD2SCR; two independent experiments
T2 construct: purchased Peprotech 300-12
Experimental: as §2, §3, §4, §5

CCL5 [5] = target: T3, CCL5 (Homo sapiens, UniProt P13501); assay: Biolayer interferometry cross-binding screen; conditions: 1 μM chemokine, fusion 1 mg/mL immobilised; specific if Rmax exceeded 3 times Rmax of SUMO:HD2SCR; two independent experiments
T3 construct: purchased Peprotech 300-06
T3 sequence (P13501 24-91): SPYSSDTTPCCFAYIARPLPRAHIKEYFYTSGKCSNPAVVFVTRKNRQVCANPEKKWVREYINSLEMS
Experimental: as §2, §3, §4, §5

CCL7 [6] = target: T4, CCL7 (Homo sapiens, UniProt P80098); assay: Biolayer interferometry cross-binding screen; conditions: 1 μM chemokine, fusion 1 mg/mL immobilised; specific if Rmax exceeded 3 times Rmax of SUMO:HD2SCR; two independent experiments
T4 construct: purchased Peprotech 300-17
Experimental: as §2, §3, §4, §5

[7] = tested on: 25 biotinylated chemokines; assay: Phage-display library selection with deep sequencing; format: binding, human; conditions: multivalent p8 phage display, three selection rounds, 25 chemokine baits, enrichment vs input library
Experimental: Phage display screening was performed using a protocol as described[71] with certain modifications. Experiments were performed in 96-well plates (Greiner Bio-One, 655180). Briefly, biotinylated chemokines (1 μg, Almac or ProteinFoundry, Supplementary Table 1) were immobilised on 5 μl streptavidin-coated magnetic beads (Dynabeads™ M-280 Streptavidin, Invitrogen, 11205D) and incubated overnight at 4 °C. […]
Inserts from the input library and from the final phage population following selection were amplified by PCR using primers: 5′- […] and 5′-[…], (Life Technologies). The PCR products were cleaned up using Monarch® PCR & DNA Cleanup Kit (5 μg) (T1030, NEB), 260/280 ratio determined by Nanodrop, quantified using a Qubit dsDNA Quantitation, High Sensitivity Kit (Q32851, Thermo Scientific) and subsequently sequenced at Azenta/GeneWiz using the AmpliconEZ protocol.
Paired end read Fastq files were joined by the read id. […] Hexadecapeptide enrichment (E) following selection was calculated as ratio of output peptide frequency to input peptide frequency and expressed as log2E. […]

CCL7 [8] = target: T4, CCL7; assay: CCL7-induced THP1 cell migration (chemotaxis); format: cell-based
Experimental: as §1
(§6) Following the migration assay the migration plate was shaken at 850 RPM for 10 min, and media from bottom plate transferred to a round-bottomed 96 well plate (353910, Falcon). Cell counts were determined using an Atune NxT Flow Cytometer Plate Reader with Cytkick autosampler (ThermoFisher), based on cell size parameters FSC-H/SSC-H, and a previously defined gate setting for each cell type (Supplementary Fig. 11). All experiments were performed as three technical and three biological replicates. Statistical significances between control and experimental groups was evaluated using Dunnett’s test[73]. IC50 experiments were performed at the EC80 dose of chemokine. EC80 was calculated by fitting a chemokine dose-response curve with a 3-parameter log-logistic model (fixing the top to 100%) using the function “drm” in R-package drc[74]. IC50 was calculated by fitting an inhibitor response curve with a 4-parameter log-logistic model using the function “drm” in R-package drc[74]. […]

CXCL10 [9] = target: T2, CXCL10; assay: CXCL10-induced activated T cell (ATC) migration (chemotaxis); format: cell-based
Experimental: For activated-T cell migration assays, 100000 cells/well were added to the top chamber of a 3-µm Transwell insert (3385, Corning) in 50 µL of migration media (HBSS (14025-092, Life Technologies), 0.1% protease free bovine serum albumin (A7030, Sigma), 0.05% DMSO (D4540, Sigma)). The bottom chamber contained 150 µL of migration media with chemokine and peptide added. Cells were migrated at 37 °C in 5% CO2 for 2 h.
as §6

CCL5 [10] = target: T3, CCL5; assay: CCL5-induced THP1 cell migration (chemotaxis); format: cell-based
Experimental: as §1, §6

CXCL6 = target: T5, CXCL6 (Homo sapiens, UniProt P80162); assay: CXCL6-induced Jurkat CXCR1 (J:CXCR1) migration (chemotaxis); format: cell-based
T5 construct: purchased Peprotech 300-41
Experimental: as §1
J:CXCR1 migration assays were performed exactly as for THP1 assays except that a 3-µm Transwell insert (3385, Corning) was used.
Following the migration assay the migration plate was shaken at 850 RPM for 10 min, and media from bottom plate transferred to a round-bottomed 96 well plate (353910, Falcon). Cell counts were determined using an Atune NxT Flow Cytometer Plate Reader with Cytkick autosampler (ThermoFisher), based on cell size parameters FSC-H/SSC-H, and a previously defined gate setting for each cell type (Supplementary Fig. 11). […] Statistical significances between control and experimental groups was evaluated using Dunnett’s test[73]. […] EC80 was calculated by fitting a chemokine dose-response curve with a 3-parameter log-logistic model (fixing the top to 100%) using the function “drm” in R-package drc[74]. IC50 was calculated by fitting an inhibitor response curve with a 4-parameter log-logistic model using the function “drm” in R-package drc[74]. […]

T5 sequence (P80162 38-114): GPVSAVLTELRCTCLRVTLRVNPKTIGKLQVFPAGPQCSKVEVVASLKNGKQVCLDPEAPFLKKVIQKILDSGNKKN
T4 sequence (P80098 24-99): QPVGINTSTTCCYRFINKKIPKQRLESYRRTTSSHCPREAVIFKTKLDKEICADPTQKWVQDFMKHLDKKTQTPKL

Substance: DEDYEDFFKPVTCYFA [HD540, hexadecapeptide from evasin EV672_RHIPC]
- effect on chemokine-induced cell migration compared with scrambled control HD2SCR (CCL8 [1]): inhibition

Substance: EEEDDYTAYAPLTAYFTN [Ev4Glu^14-Asn^31]
- inhibition of CCL5 function (CCL5 [2]): inhibits CCL5 function

Substance: EDEDYEDFFKPVTCYF [HD845, hexadecapeptide from evasin EV672_RHIPC, previously described as BK1.5]
- effect on chemokine-induced cell migration compared with scrambled control HD2SCR (CCL8 [1]): inhibition

Substance: sHD2: HD2 generated as HIS:SUMO fusion protein in E.coli for BLI (EEDDYTAYAPLTCYFT; also: HIS:SUMO fusion protein, side not given here)
- specific binding in BLI cross-binding screen (CCL8 [3]; 1 μM chemokine, fusion 1 mg/mL immobilised, specific if Rmax exceeded 3 times Rmax of SUMO:HD2SCR, two independent experiments): specifically and reproducibly bind
- Kd (CCL8 [3]; Expt ID E12, N = 5 dose responses with good fits, BLI kinetic assay, 1:1 binding model, 25 °C): 0.143 µM
- specific binding in BLI cross-binding screen (CCL11): specifically and reproducibly bind
- specific binding in BLI cross-binding screen (CXCL13): specifically and reproducibly bind
- specific binding in BLI cross-binding screen (CCL1): specifically and reproducibly bind
- specific binding in BLI cross-binding screen (CXCL10 [4]): specifically and reproducibly bind
- specific binding in BLI cross-binding screen (CCL5 [5]): specifically and reproducibly bind
- specific binding in BLI cross-binding screen (CCL7 [6]): specifically and reproducibly bind

Substance: EEEDDYTAYAPLTCYF [HD7, hexadecapeptide from evasin EVA4_RHISA]
- number of chemokines bound with log2E > 5 [7]: over 15

Substance: EEDDYTAYAPLTCYFT-NH2 [HD2]
- IC50 (CCL7 [8]): 5.7 µM
- IC50 (CXCL10 [9]): 2.5 µM
- IC50 (CCL5 [10]): 0.79 µM
- IC50 (CCL8 [1]): 0.019 µM
- IC50 (CXCL6): 7.1 µM
- IC50 (CXCL6; IC50, median, median of biological replicates (n = 3), Fig. 6k, J:CXCR1 cells, chemokine at EC80): 14 µM
